Target: Alpha-glucosidase (Saccharomyces cerevisiae S288c, UniProt P53341+P38158+P07265)
Test: Inhibition of Saccharomyces cerevisiae alpha-glucosidase using nitrophenol-alpha-D-glucopyranoside (pNPG) as substrate incubated for 15 mins
Assay type: protein assay

IC50 | SMILES
50.24 µM | Fc1ccc(/C=N/Nc2nnc3n2N=C(c2ccccc2)CS3)cc1
85.86 µM | COc1ccc(/C=N/Nc2nnc3n2N=C(c2ccccc2)CS3)cc1
55.42 µM | Oc1ccccc1/C=N/Nc1nnc2n1N=C(c1ccccc1)CS2
41.83 µM | Clc1ccccc1/C=N/Nc1nnc2n1N=C(c1ccccc1)CS2

— ChEMBL document CHEMBL5634160, “Synthesis, biological evaluation and action mechanism of 7H-[1,2,4] triazolo [3,4-b] [1,3,4] thiadiazine-phenylhydrazone derivatives as α-glucosidase inhibitors” (Eur J Med Chem, 2023)
